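1) Cells in 96-well plates. 2) Compound, 48 h, 5 concentrations. 3) Linear interpolation between surrounding doses. 4) Unreached endpoint = highest concentration. GI50 is the concentration that inhibits growth by half. TGI: concentration producing complete growth inhibition.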
System: MOLT-4 leukemia
Assay: NCI anticancer screen, dose series, 48 h

| Compound | GI50 [µM] | TGI [µM] |
| --- | --- | --- |
| COC(=O)c1c(C)[nH]c(/C=C2\N=C(c3ccc[nH]3)C=C2OC)c1C | 0.0495 | > 36.5 |
| COc1cc2c3c(n(CCCCOC(=O)C(Cl)(Cl)Cl)c(=O)c2cc1OC)-c1cc2c(cc1C3=O)OCO2 | 5.67 | > 100 |
| C/C(=N\Nc1ccc(Cl)cn1)c1ccccn1 | 0.026 | > 42 |
| COc1cc(NS(=O)(=O)c2ccc(-c3cnc(C4CC4)o3)cc2)ccc1F | 0.564 | > 100 |
| CC(C)CCCC(=O)CCCCCCC(=O)CCN(O)C(=O)C(N)CO (configuration not stated) |  | > 100 |
| Cc1ccc(NC(=O)NCCCOc2ccc(N3C(N)=NC(N)=NC3(C)C)cc2Cl)cc1S(=O)(=O)F | 9.26 | > 100 |
| CC[CH2][Sn]([Cl])([Cl])[CH2]CC.Oc1ccccc1C=NCCN=Cc1ccccc1O | 4.88 | > 100 |
| COc1ccccc1Cn1cc2c(c1-c1ccccc1)CCc1cnoc1-2 | 3.42 | > 100 |
| COc1cc2c(c(OC)c1OC)C(=O)[C@@H]1c3ccc([N+](=O)[O-])cc3C(=O)N(CCCBr)[C@H]21 | 19.8 | > 100 |
| C/C=C(\C)CC/C=C/CO[Si](C)(C)C(C)(C)C |  | 81.3 |
| COc1cc2c3c(n(C)c(=O)c2cc1OC)-c1cc2c(cc1/C3=C\CNCCCN)OCO2 | 0.0118 | 0.0502 |
| O=C(/C=C\n1cnc(-c2cc(C(F)(F)F)cc(C(F)(F)F)c2)n1)NNc1cnccn1 | 0.0312 | > 100 |
| CNc1nc(N)c(N=O)c(Nc2ccc(Br)cc2)n1 |  | > 100 |
| COc1ccc(-c2nnc(COc3ccc(NC(=O)Nc4ccc(Cl)c(C(F)(F)F)c4)cc3F)o2)cc1 | 2.39 | 11.6 |
| CN1C(=O)c2ccccc2NC(=O)C12O[C@@H]2c1cccc(O)c1 (some centres not stated) |  | > 100 |
| CCN(CC)CCCC(C)Nc1cnc(C(=O)Nc2cccc3ccc(OC)nc23)cn1 (configuration not stated) | 2.04 | 4.67 |
| COC(=O)C12C3C4C1C1C2C3C41NC(=O)c1csc([C@@H](C[C@H](C(C)C)N(C)C(=O)[C@@H](NC(=O)[C@H]2CCCCN2C)C2CC2)OC(C)=O)n1 (some centres not stated) | 0.00729 | > 33.3 |
| N#Cc1cccc(NC(=O)c2cc(-c3ccc(F)cc3F)ccc2O)c1 | 2.46 | 6.65 |
| CSc1nc2cc(S(=O)(=O)N3CCCCC3)ccc2s1 |  | > 100 |
| Nc1nc(-c2cccc(Cl)c2)c(-c2ccc3ncccc3n2)s1 | > 25 | > 25 |
| CCCCN1CSC(=S)N(Cc2ccccc2)C1 |  | 78.2 |
| COc1ccc(OC)c(C(=O)c2oc3ccc(Br)cc3c2N)c1 | 0.425 | 23.7 |
| CCC(=O)c1c(C(F)(F)F)n([O-])c2ccc(C)cc2[n+]1=O | 14.1 | > 50 |
| O=C(O)[C@@H]1CCCCN1Cc1cc2cc3c(cc2c2cc(OCc4ccccc4)ccc12)OCO3 | 63.3 | > 100 |

System: UACC-257 melanoma
Assay: NCI anticancer screen, dose series, 48 h

| Compound | GI50 [µM] | TGI [µM] |
| --- | --- | --- |
| COC(=O)c1c(C)[nH]c(/C=C2\N=C(c3ccc[nH]3)C=C2OC)c1C | 0.339 | 1.52 |
| COc1cc2c3c(n(CCCCOC(=O)C(Cl)(Cl)Cl)c(=O)c2cc1OC)-c1cc2c(cc1C3=O)OCO2 | > 100 | > 100 |
| C/C(=N\Nc1ccc(Cl)cn1)c1ccccn1 | 0.117 |  |
| COc1cc(NS(=O)(=O)c2ccc(-c3cnc(C4CC4)o3)cc2)ccc1F | 2.43 | 33.9 |
| CC(C)CCCC(=O)CCCCCCC(=O)CCN(O)C(=O)C(N)CO (configuration not stated) |  | 35.1 |
| Cc1ccc(NC(=O)NCCCOc2ccc(N3C(N)=NC(N)=NC3(C)C)cc2Cl)cc1S(=O)(=O)F | 10.9 | > 100 |
| CC[CH2][Sn]([Cl])([Cl])[CH2]CC.Oc1ccccc1C=NCCN=Cc1ccccc1O | 3.61 | 17.8 |
| COc1ccccc1Cn1cc2c(c1-c1ccccc1)CCc1cnoc1-2 | 20.2 | > 100 |
| COc1cc2c(c(OC)c1OC)C(=O)[C@@H]1c3ccc([N+](=O)[O-])cc3C(=O)N(CCCBr)[C@H]21 | 5.21 | 30.8 |
| C/C=C(\C)CC/C=C/CO[Si](C)(C)C(C)(C)C |  | > 100 |
| COc1cc2c3c(n(C)c(=O)c2cc1OC)-c1cc2c(cc1/C3=C\CNCCCN)OCO2 | 0.907 | 2.76 |
| O=C(/C=C\n1cnc(-c2cc(C(F)(F)F)cc(C(F)(F)F)c2)n1)NNc1cnccn1 | 0.188 | 16.6 |
| CNc1nc(N)c(N=O)c(Nc2ccc(Br)cc2)n1 |  | > 100 |
| COc1ccc(-c2nnc(COc3ccc(NC(=O)Nc4ccc(Cl)c(C(F)(F)F)c4)cc3F)o2)cc1 | 2.41 | 11.2 |
| CN1C(=O)c2ccccc2NC(=O)C12O[C@@H]2c1cccc(O)c1 (some centres not stated) |  | > 100 |
| CCN(CC)CCCC(C)Nc1cnc(C(=O)Nc2cccc3ccc(OC)nc23)cn1 (configuration not stated) | 2.43 | 5.98 |
| COC(=O)C12C3C4C1C1C2C3C41NC(=O)c1csc([C@@H](C[C@H](C(C)C)N(C)C(=O)[C@@H](NC(=O)[C@H]2CCCCN2C)C2CC2)OC(C)=O)n1 (some centres not stated) | > 16.6 | > 33.3 |
| N#Cc1cccc(NC(=O)c2cc(-c3ccc(F)cc3F)ccc2O)c1 | 1.53 | 5.84 |
| CSc1nc2cc(S(=O)(=O)N3CCCCC3)ccc2s1 |  | > 100 |
| Nc1nc(-c2cccc(Cl)c2)c(-c2ccc3ncccc3n2)s1 | > 25 | > 25 |
| CCCCN1CSC(=S)N(Cc2ccccc2)C1 |  | 60.2 |
| COc1ccc(OC)c(C(=O)c2oc3ccc(Br)cc3c2N)c1 | 0.392 | 21.8 |
| CCC(=O)c1c(C(F)(F)F)n([O-])c2ccc(C)cc2[n+]1=O | 11.3 | > 50 |
| O=C(O)[C@@H]1CCCCN1Cc1cc2cc3c(cc2c2cc(OCc4ccccc4)ccc12)OCO3 | 3.4 | 12 |

System: NCI-H23 lung
Assay: NCI anticancer screen, dose series, 48 h

| Compound | GI50 [µM] | TGI [µM] |
| --- | --- | --- |
| COC(=O)c1c(C)[nH]c(/C=C2\N=C(c3ccc[nH]3)C=C2OC)c1C | 0.483 | 4.55 |
| COc1cc2c3c(n(CCCCOC(=O)C(Cl)(Cl)Cl)c(=O)c2cc1OC)-c1cc2c(cc1C3=O)OCO2 | 92 | > 100 |
| C/C(=N\Nc1ccc(Cl)cn1)c1ccccn1 | 0.0674 | > 100 |
| COc1cc(NS(=O)(=O)c2ccc(-c3cnc(C4CC4)o3)cc2)ccc1F | 0.989 | 21.4 |
| CC(C)CCCC(=O)CCCCCCC(=O)CCN(O)C(=O)C(N)CO (configuration not stated) |  | 32.1 |
| Cc1ccc(NC(=O)NCCCOc2ccc(N3C(N)=NC(N)=NC3(C)C)cc2Cl)cc1S(=O)(=O)F | 5 | > 100 |
| CC[CH2][Sn]([Cl])([Cl])[CH2]CC.Oc1ccccc1C=NCCN=Cc1ccccc1O | 6.62 | 20.5 |
| COc1ccccc1Cn1cc2c(c1-c1ccccc1)CCc1cnoc1-2 | 3.36 | 74 |
| COc1cc2c(c(OC)c1OC)C(=O)[C@@H]1c3ccc([N+](=O)[O-])cc3C(=O)N(CCCBr)[C@H]21 | 15.4 | 35.8 |
| C/C=C(\C)CC/C=C/CO[Si](C)(C)C(C)(C)C |  | > 100 |
| COc1cc2c3c(n(C)c(=O)c2cc1OC)-c1cc2c(cc1/C3=C\CNCCCN)OCO2 | 0.437 | 3.15 |
| O=C(/C=C\n1cnc(-c2cc(C(F)(F)F)cc(C(F)(F)F)c2)n1)NNc1cnccn1 | 0.0661 | 15.7 |
| CNc1nc(N)c(N=O)c(Nc2ccc(Br)cc2)n1 |  | > 100 |
| COc1ccc(-c2nnc(COc3ccc(NC(=O)Nc4ccc(Cl)c(C(F)(F)F)c4)cc3F)o2)cc1 | 3.12 | 14.6 |
| CN1C(=O)c2ccccc2NC(=O)C12O[C@@H]2c1cccc(O)c1 (some centres not stated) |  | > 100 |
| CCN(CC)CCCC(C)Nc1cnc(C(=O)Nc2cccc3ccc(OC)nc23)cn1 (configuration not stated) | 2.44 | 5.63 |
| COC(=O)C12C3C4C1C1C2C3C41NC(=O)c1csc([C@@H](C[C@H](C(C)C)N(C)C(=O)[C@@H](NC(=O)[C@H]2CCCCN2C)C2CC2)OC(C)=O)n1 (some centres not stated) | 0.151 | > 33.3 |
| N#Cc1cccc(NC(=O)c2cc(-c3ccc(F)cc3F)ccc2O)c1 | 1.43 | 4.35 |
| CSc1nc2cc(S(=O)(=O)N3CCCCC3)ccc2s1 |  | > 100 |
| Nc1nc(-c2cccc(Cl)c2)c(-c2ccc3ncccc3n2)s1 | > 25 | > 25 |
| CCCCN1CSC(=S)N(Cc2ccccc2)C1 |  | > 100 |
| COc1ccc(OC)c(C(=O)c2oc3ccc(Br)cc3c2N)c1 | 0.649 | 24 |
| CCC(=O)c1c(C(F)(F)F)n([O-])c2ccc(C)cc2[n+]1=O | 1.2 | 6.1 |
| O=C(O)[C@@H]1CCCCN1Cc1cc2cc3c(cc2c2cc(OCc4ccccc4)ccc12)OCO3 | 21.6 | 45.7 |

System: DU-145 prostate
Assay: NCI anticancer screen, dose series, 48 h

| Compound | GI50 [µM] | TGI [µM] |
| --- | --- | --- |
| COC(=O)c1c(C)[nH]c(/C=C2\N=C(c3ccc[nH]3)C=C2OC)c1C | 0.426 | > 100 |
| COc1cc2c3c(n(CCCCOC(=O)C(Cl)(Cl)Cl)c(=O)c2cc1OC)-c1cc2c(cc1C3=O)OCO2 | 20.4 | > 100 |
| C/C(=N\Nc1ccc(Cl)cn1)c1ccccn1 | 0.161 | > 100 |
| COc1cc(NS(=O)(=O)c2ccc(-c3cnc(C4CC4)o3)cc2)ccc1F | 0.765 | 58.9 |
| CC(C)CCCC(=O)CCCCCCC(=O)CCN(O)C(=O)C(N)CO (configuration not stated) |  | 37.4 |
| Cc1ccc(NC(=O)NCCCOc2ccc(N3C(N)=NC(N)=NC3(C)C)cc2Cl)cc1S(=O)(=O)F | 6.04 | > 100 |
| CC[CH2][Sn]([Cl])([Cl])[CH2]CC.Oc1ccccc1C=NCCN=Cc1ccccc1O | 12.1 | 24.6 |
| COc1ccccc1Cn1cc2c(c1-c1ccccc1)CCc1cnoc1-2 | 2.76 | 12.1 |
| COc1cc2c(c(OC)c1OC)C(=O)[C@@H]1c3ccc([N+](=O)[O-])cc3C(=O)N(CCCBr)[C@H]21 | 14.6 | 53.2 |
| C/C=C(\C)CC/C=C/CO[Si](C)(C)C(C)(C)C |  | > 100 |
| COc1cc2c3c(n(C)c(=O)c2cc1OC)-c1cc2c(cc1/C3=C\CNCCCN)OCO2 | 1.15 | 12.8 |
| O=C(/C=C\n1cnc(-c2cc(C(F)(F)F)cc(C(F)(F)F)c2)n1)NNc1cnccn1 | 0.271 | 12.6 |
| CNc1nc(N)c(N=O)c(Nc2ccc(Br)cc2)n1 |  | > 100 |
| COc1ccc(-c2nnc(COc3ccc(NC(=O)Nc4ccc(Cl)c(C(F)(F)F)c4)cc3F)o2)cc1 | 3.1 | 11.1 |
| CN1C(=O)c2ccccc2NC(=O)C12O[C@@H]2c1cccc(O)c1 (some centres not stated) |  | > 100 |
| CCN(CC)CCCC(C)Nc1cnc(C(=O)Nc2cccc3ccc(OC)nc23)cn1 (configuration not stated) | 4.24 | 15.3 |
| COC(=O)C12C3C4C1C1C2C3C41NC(=O)c1csc([C@@H](C[C@H](C(C)C)N(C)C(=O)[C@@H](NC(=O)[C@H]2CCCCN2C)C2CC2)OC(C)=O)n1 (some centres not stated) | 0.00671 | > 33.3 |
| N#Cc1cccc(NC(=O)c2cc(-c3ccc(F)cc3F)ccc2O)c1 | 3.26 | > 100 |
| CSc1nc2cc(S(=O)(=O)N3CCCCC3)ccc2s1 |  | > 100 |
| Nc1nc(-c2cccc(Cl)c2)c(-c2ccc3ncccc3n2)s1 | > 25 | > 25 |
| CCCCN1CSC(=S)N(Cc2ccccc2)C1 |  | > 100 |
| COc1ccc(OC)c(C(=O)c2oc3ccc(Br)cc3c2N)c1 | 0.604 | 17.3 |
| CCC(=O)c1c(C(F)(F)F)n([O-])c2ccc(C)cc2[n+]1=O | 5.99 | 16.6 |
| O=C(O)[C@@H]1CCCCN1Cc1cc2cc3c(cc2c2cc(OCc4ccccc4)ccc12)OCO3 | 5.19 | > 100 |

— PubChem BioAssay (NCI)
